Experimental data: patent US11186613B2, “Solid-phase support comprising IgG-binding peptide, and method for separating IgG” (Kagoshima University, priority 2016, dated 2021)
Like-named read-outs stand apart in the source and are kept apart here. Bridges are numbered along the chain shown (N, C = ends). Primed or numbered codes have the meaning given here. Where no end group is shown, it is not given here. The star is where a group is joined. Biotin = O=C1N[C@H]2[C@H](CS[C@H]2CCCCC(=O)*)N1; Fmoc = O=C(OCC1c2ccccc2-c2ccccc21)*; PEG4′ = not defined here

Experiments:
IgG = test: Affinity analysis of IgG-binding peptides by surface plasmon resonance (BIAcore T200), IgG immobilized on sensor chip; conditions: for ka / kd: peptide 10 nM to 2 μM, HBS-EP buffer pH 7.0
Method: Affinity analysis of the purified IgG-binding peptide was carried out according to the following method. Equal amounts of 0.4 M 1-ethyl-3-(3-dimethylaminopropyl)-carbodiimide (EDC) and 0.1 M sulfo-N-hydroxysuccinimide (sulfo-NHS) were mixed and injected onto a CMS sensor chip, which was set in BIAcoreT200 (GE healthcare), at a flow rate of […] for 7 min to activate the sensor chip, and then the IgG was immobilized on the sensor chip under conditions of pH 4.0 (10 mM Na acetate) so as to give an immobilized amount of 4000 to 5000 in RU value. The binding reaction was monitored by injecting the peptide in a concentration from 10 nM to 2 μM at a flow rate of […] for 180 sec while using an HBS-EP buffer (0.01 M HEPES, 0.15 M NaCl, 0.005% TWEEN 20, 3 mM EDTA, pH 7.0), and then the dissociation reaction was measured by washing with the buffer for 600 sec. Binding parameters were analyzed using BlAevalution T100 software.

[1] = system: human serum-derived γ-globulin; test: Evaluation of alkali resistance: DBC after repeated 0.1 M sodium hydroxide treatment; assay type: physicochemical; conditions: five 0.1 M sodium hydroxide treatments
Method: FIG. 4 illustrates measurement results of DBC of an IgG-binding peptide cross-linked via a linker, prepared in Example 2, and an IgG-binding peptide cross-linked by disulfide, prepared in Comparative Example 1, both of which were treated with sodium hydroxide.
To a 1-mg peptide-immobilized 1-mL column prepared by the same method as in Example 3, 5 mL of 0.1 M sodium hydroxide solution was fed. The column was then washed with the adsorption solution and DBC was measured at a flow rate of 1 mL/min as in Example 5. Subsequently, a cycle of the treatment with the sodium hydroxide solution and the DBC measurement was repeated five times to evaluate the alkali resistance. The variation rate of DBC was determined based on the DBC before the sodium hydroxide treatment as 100%.
As Comparative Example 1, a column with 1 mg of a peptide cross-linked by a disulfide bond immobilized thereon was prepared, and the alkali resistance evaluation was carried out as in Example 5.

[2] = system: human serum-derived γ-globulin; test: Separation of human serum-derived γ-globulin on peptide-immobilized column, acidic elution; conditions: 1 mg peptide on NHS-activated 1-mL column; elution 20 mM citric acid pH 2.5
Method: FIG. 1 illustrates a result of a case where human serum-derived γ-globulin (Wako) was adsorbed to a column with immobilized peptide prepared in Example 3 and eluted with an acidic elution solution (20 mM citric acid, pH 2.5). The horizontal axis represents the volume of the elution liquid and the vertical axis represents the […] concentration measured by absorbance at 280 nm.
A dichloroacetone-cross-linked peptide was immobilized to an NHS-activated prepacked column (GE Healthcare) to carry out various evaluations to assess whether the dichloroacetone-cross-linked peptide can be used as an affinity ligand for human antibody purification.
The peptide-immobilized column was prepared by the following procedures. A syringe was used to feed a solution.
To a 1-mL capacity NHS-activated prepacked column, 5 mL of 1 mM hydrochloric acid was fed to remove an isopropanol solution in the column. […]
The prepared peptide-immobilized column was connected to a liquid chromatography system AKTAexplore (GE Healthcare) and equilibrated with the adsorption solution. […] The elution of proteins from the column was detected by absorbance at 280 nm. […]

[3] = system: human-derived serum γ-globulin; test: Competitive elution with peptide from peptide-immobilized column, SDS-PAGE; conditions: 2.5 mL of 0.4 mg/mL peptide solution; bands around 25 kDa and 50 kDa on SDS-PAGE
Method: FIG. 2 illustrates results of SDS-PAGE of fractions fractionated in 0.5 mL that are obtained by eluting proteins with citric acid or the IgG-binding peptide from the column with immobilized peptide prepared in Example 3. The proteins were detected by CBB staining.
To the column prepared by the same method as in Example 3, 1 mg of human-derived serum γ-globulin was fed to adsorb the globulin thereto. The column was washed with the adsorption solution, and then 2.5 mL of a 0.4 mg/mL solution of Peptide a prepared in Example 2 dissolved in the adsorption solution was fed to the column. Each fraction fractionated in 0.5 mL was subjected to SDS-PAGE under reductive conditions in accordance with an ordinary method. Proteins were detected by CBB staining. For comparison, similar operations were carried out also for citric acid elution.

[4] = SPR, 1:1 binding model, read-out: KD (nM) 1:1 binding
[5] = SPR, equilibrium value, read-out: KD (nM) Equilibrium value

Row | Substance | Kd (IgG; [4]) [nM] | Kd (IgG; [5]) [nM] | ka (IgG; SPR) | kd (IgG; SPR) | alkali resistance (change in DBC by sodium hydroxide treatments) [1] | usability as ligand for an affinity column (adsorption and acid elution of γ-globulin) [2] | elution of adsorbed γ-globulin by peptide solution [3] | Kd (IgG; measured as in Example 1, read-out: Kd (affinity for IgG)) [nM]
1 | GPDCAYH(Xaa1)GELVWCTFH (SEQ ID NO:2, wherein Xaa1 was arginine and the C-terminus was amidated) (GPDCAYHRGELVWCTFH-NH2; not fully specified (N-terminus, bridges); printed as GPDCAYH(Xaa1)GELVWCTFH; cysteine pairing not given here) [SEQ ID NO: 2, wherein Xaa1 is R] | 9.1 | 10 | 1.57E+06 | 0.0144 | – | – | – | –
2 | GPRCAYH(Xaa1)GELVWCSFH (SEQ ID NO:4, wherein Xaa1 was arginine and the C-terminus was amidated) (GPRCAYHRGELVWCSFH-NH2; not fully specified (N-terminus, bridges); cysteine pairing not given here) [SEQ ID NO: 4, wherein Xaa1 is R] | 42 | 56 | 8.40E+05 | 0.0353 | – | – | – | –
3 | DCAYH(Xaa1)GELVWCT (SEQ ID NO:1, wherein Xaa1 was arginine and the C-terminus was amidated) ({Biotin-PEG4′}-DCAYHRGELVWCT-NH2; disulfide 2-12 (inferred)) [SEQ ID NO: 1, wherein Xaa1 is R] | 54 | 64.5 | 4.57E+05 | 0.0248 | – | – | – | –
4 | GPDCAYH(Xaa1)GELVWCTFH (SEQ ID NO:2, wherein Xaa1 was arginine and the C-terminus was amidated) ({Biotin-PEG4′}-GPDCAYHRGELVWCTFH-NH2; bridge 4-14; not fully specified (bridges); printed as GPDCAYH(Xaa1)GELVWCTFH) [Peptide a, N-terminally PEG4-modified, C-terminally amidated; cysteine sulfide groups connected via linker from 1,3-dichloro-2-propanone (linker drawing 11)] | – | – | – | – | no decrease in DBC | can be used as a ligand for an affinity column | can be used as a means for elution | –
5 | GPDCAYH(Xaa1)GELVWCTFH (SEQ ID NO:2, wherein Xaa1 was leucine, and the C-terminus was amidated) ({Biotin-PEG4′}-GPDCAYHLGELVWCTFH-NH2; disulfide 4-14 (inferred)) [SEQ ID NO: 2, wherein Xaa1 is L] | 8.1 | – | 1.7E+05 | 0.014 | – | – | – | –
6 | Fmoc-HN-PEG4-GPDCAYH(Xaa1)GELVWCTFH (SEQ ID NO:2, wherein Xaa1 was arginine and the C-terminus was amidated) ({Fmoc-PEG4′}-GPDCAYHRGELVWCTFH-NH2; cysteine pairing not given here) [Peptide b] | – | – | – | – | – | – | – | 1000
7 | GPDCAYH(Xaa1)GELVWCTFH (SEQ ID NO:2, wherein Xaa1 was acetylated lysine, and the C-terminus was amidated) (GPDCAYHXGELVWCTFH; Xaa1=acetyl-lysine; C-terminal amide; (8)..(8) Xaa is arginine, lysine, leucine, asparagine, or derivative thereof) [SEQ ID NO: 2, wherein Xaa1 is K (Acetyl)] | 2700 | 2800 | 4.4E+05 | 0.12 | – | – | – | –
8 | GPDCAYH(Xaa1)GELVWCTFH (SEQ ID NO:2, wherein Xaa1 was lysine, and the C-terminus was amidated) (GPDCAYHXGELVWCTFH; Xaa1=K; C-terminal amide; (8)..(8) Xaa is arginine, lysine, leucine, asparagine, or derivative thereof) [SEQ ID NO: 2, wherein Xaa1 is K] | 156 | 131 | 1.25E+06 | 0.195 | – | – | – | –
